Test results as given in patent publication US8710064B2, “2-aryl-4-quinazolinones and their pharmaceutical compositions” (China Medical University, priority 2011, dated 2014).

Tests used:
C6 glioma cells = assay: G1 synchronized by Ara-C, flow cytometry; assay type: cell-based, rat; conditions: 41.6 nM Ara-C for 12 hours
Experimental: At indicated time points (0, 6, 12 and 24 hr), >10^6 cells were collected and fixed in 70% ethanol over 1 hour at −20° C. After staining with PI as described, DNA content of ten thousand cells was analyzed by flow cytometry.
To investigate the influence of MJ-66 on normal glia such as human glia cell line SVGP12 and rat primary glia cells, cells were treated with different concentrations of MJ-66 in vitro (0.00625, 0.0125, 0.025, 0.05, 0.1 and 1 μM) for different time durations (0, 6, 12 and 24 hours) and the cell viability was assessed by MTS assay. Cells alone or treated with DMSO were used as control. […] However, most glia cells in animals are static and their proliferation rate is almost silent. Therefore, cytosine arabinoside (Ara-C), a DNA synthesis inhibitor, was further used to inhibit glioma cell proliferation and glioma cells were then treated with MJ-66 or DMSO as described in “General materials and methods”. Specifically, after C6 glioma cells were treated with 41.6 nM Ara-C for 12 hours, and then treated with solvent (DMSO) or 60 nM MJ-66 for 0, 6, 12 and 24 hours, the cell cycle distributions and DNA content of the cells were monitored by flow cytometry with propidium iodide staining C6 glioma cells treated with 41.6 nM Ara-C for 12 hours (12 hr) were detected by flow cytometry with propidium iodide staining as control.

Hep3B = assay: trypan blue exclusion assay, Hep3B cells; assay type: cell-based; conditions: Hep3B human hepatoma
Experimental: (§1) Hep3B (human hepatocellular carcinoma) and H460 (lung non-small carcinoma) cells were grown in monolayer culture in Dulbecco's modified Eagle's medium (DMEM) (Life Technologies, Rockville, Md., USA) containing 5% fetal bovine serum (HyClone, Logan, Utah, USA), 100 U/ml penicillin and 100 μg/ml streptomycin (Gibco BRL, Rockville, Md., USA) and 2 mM glutamine (Merck, Darmstadt, Germany).
(§2) Cell viability was also determined by trypan-blue exclusion assay. Cells were seeded in 6-well plates (2×10^4/well) for trypan blue exclusion assay, and incubated for 24 hours at 37° C. Culture medium containing test compound or DMSO (0.006%) was added to each well, and cells were incubated at 37° C. At indicated time points (0, 24, 48, 72 and 96 hr), cells were suspended with 0.05% trypsin-EDTA, and stained with trypan-blue dye (0.4%) (Sigma). The cell viability was evaluated by the percentage of death relative to the total cell, and cell growth curve was determined by number of live cells relative to the total number of cells.
(§3) The anti-proliferation effects of Compounds 17-31 on M21, CH27, H460, Hep3B and HSC-3 cells were evaluated by the trypan blue exclusion assay.

M21 = assay: trypan blue exclusion assay, M21 cells; assay type: cell-based; conditions: Homo sapiens; M21 skin cancer; trypan blue exclusion assay; read-out: IC50 M21
Experimental: M21 cell line (human malignant melanoma) was provided by Dr. Feng-Yao Tang (China Medical University, Taiwan). Cells were grown in monolayer culture in RPMI-1640 medium, Eagle's minimum essential medium or Dulbecco's modified Eagles medium (Invitrogen Corporation, Grand Island, N.Y., USA) containing 10% fetal bovine serum (FBS; HyClone, Logan, Utah, USA), 100 U/ml penicillin and 100 μg/ml streptomycin (Gibco BRL, Rockville, Md., USA).
as §2, §3

C6 rat glioma = assay: MTS cell viability assay, C6 glioma cells; assay type: cell-based; conditions: 48 hours, mean±SEM, n=3
Experimental: (§4) The human glioma cell lines U87, U251, T98G, U373, and rat glioma cell line RT2 provided by Dr. Michael Hsiao (Genomics Research Center, Academia Sinica, Taiwan) were cultured in Dulbecco's Modified Eagle medium (DMEM) (Caisson) supplemented with 10% fetal bovine serum (FBS) (Sigma-Aldrich), 2 mM L-glutamine (Caisson), 100 U/ml penicillin, and 100 μg/ml streptomycin (Caisson). The rat glioma C6 cell line provided by Dr. Shun-Fen Tzeng (National Cheng Kung University, Taiwan) was cultured in DMEM/F12 (Caisson) supplemented with 10% fetal bovine serum, 2 mM L-glutamine, 100 U/ml penicillin, and 100 μg/ml streptomycin. The human normal glia cell line SVGP12, kindly provided by Dr. Michael Hsiao, was cultured in Minimum Essential Medium (MEM) (Invitrogen) supplemented with 10% fetal bovine serum, 2 mM L-glutamine, 100 U/ml penicillin, and […]. Primary glia cells were prepared by surgery. Cerebral cortices without meninges were dissected from postnatal (P0-P2) Sprague-Dawley (SD, NCKU Laboratory Animal Center) rats and dissociated in 0.05% trypsin-EDTA (Biowest) at 37° C. for 10 min. Culture medium was added and pipetted for several times, and supernatant was removed after a centrifugation at 1,000 rpm for 5 minutes. […]
(§5) Cell proliferation was determined by MTS (tetrazolium compound, 3-(4,5-dimethylthiazol-2-yl)-5-(3-carboxymethoxyphenyl)-2-(4-sulfophenyl)-2H-tetrazolium) assay (Promega). […] The absorbance of soluble formazan was measured at 490 nm with microplate reader (Molecular device). The cell viability was determined by the percentage of the absorption relative to untreated control. […]
(§6) To investigate the effect of 2-aryl-4-quinazolinone in accordance with the present invention on cell proliferation, glioma cell lines were treated with MJ-66, MJ-68, or MJ-78. […] The cell viability of each group was analyzed by MTS assay (mean±SEM, n=3).

CH27 = assay: trypan blue exclusion assay, CH27 cells; assay type: cell-based; conditions: CH27 human lung squamous carcinoma
Experimental: CH27 cells (Human lung squamous carcinoma) were grown in monolayer culture in Dulbecco's modified Eagle's medium (DMEM; Life Technologies, Rockville, Md., USA) containing 5% FBS (HyClone, Logan, Utah, USA), 100 U/ml penicillin, […] streptomycin (Gibco BRL, Rockville, Md., USA) and 2 mM glutamine (Merck, Darmstadt, Germany).
as §2, §3

[1] = system: U87 human glioma cell lines; assay: MTS cell viability assay, U87 glioma cells; assay type: cell-based; conditions: 48 hours, mean±SEM, n=3
Experimental: as §4, §5, §6

H460 = assay: trypan blue exclusion assay, H460 cells; assay type: cell-based; conditions: NCI-H460, H460 human non-small cell lung cancer
Experimental: as §1, §2, §3

HSC-3 = assay: trypan blue exclusion assay, HSC-3 cells; assay type: cell-based, human; conditions: HSC-3 human squamous carcinoma; trypan blue exclusion assay
Experimental: The HSC-3 (human oral squamous cell carcinoma) were cultured in 1:1 Dulbecco's Modified Eagle's Medium (DMEM) and Ham's Nutrient Mixture F-12, containing 10% FBS (HyClone, Logan, Utah, USA), 100 U/ml penicillin, 100 μg/ml streptomycin (Gibco BRL, Rockville, Md., USA) and 2 mM glutamine (Merck, Darmstadt, Germany).
as §2, §3

[2] = system: M21, CH27, H460, Hep3B and HSC-3 cells; assay: trypan blue exclusion assay, cancer cell panel (summary); assay type: cell-based; conditions: summary of Table 2
Experimental: as §2, §3

melting point [°C] | SMILES | cell cycle state of C6 glioma cells (C6 glioma cells) | IC50 (Hep3B) [nM] | IC50 (M21) [nM] | IC50 (C6 rat glioma) [nM] | IC50 (CH27) [nM] | IC50 [1] [nM] | IC50 (H460) [nM] | IC50 (HSC-3) [nM] | cytotoxic effects toward cancer cells [2]
– | Nc1ccn([C@@H]2O[C@H](CO)[C@@H](O)[C@@H]2O)c(=O)n1 [Ara-C, cytosine arabinoside, reference compound] | G1 arrest | – | – | – | – | – | – | – | –
> 300 | O=c1[nH]c(-c2csc3ccccc23)nc2ccc(N3CCCC3)cc12 [Compound 25, 6-(Pyrrolidin-1-yl)-2-(benzo[b]thiophen-3-yl)quinazolin-4-one] | – | > 10000 | > 10000 | > 1000 | > 10000 | > 1000 | > 10000 | > 10000 | –
– | O=c1[nH]c(-c2cccc3ccccc23)nc2ccc(N3CCCCC3)cc12 [Compound 26, 6-(Piperidin-1-yl)-2-(naphthalen-1-yl)quinazolin-4-one] | – | 7240 | 1590 | 470 ± 160 | 362 | 540 ± 240 | 376 | 1730 | exhibited cytotoxic effects
